How the values were obtained:
ADPRT = ADPRT (Bos taurus, UniProt P18493); settings: literature; cited from earlier work
[1] = Metabolic conversion in liver / intracellular oxidation and cell penetration; settings: nitro oxidation product formed in liver

Chain of ADPRT (P18493 whole entry): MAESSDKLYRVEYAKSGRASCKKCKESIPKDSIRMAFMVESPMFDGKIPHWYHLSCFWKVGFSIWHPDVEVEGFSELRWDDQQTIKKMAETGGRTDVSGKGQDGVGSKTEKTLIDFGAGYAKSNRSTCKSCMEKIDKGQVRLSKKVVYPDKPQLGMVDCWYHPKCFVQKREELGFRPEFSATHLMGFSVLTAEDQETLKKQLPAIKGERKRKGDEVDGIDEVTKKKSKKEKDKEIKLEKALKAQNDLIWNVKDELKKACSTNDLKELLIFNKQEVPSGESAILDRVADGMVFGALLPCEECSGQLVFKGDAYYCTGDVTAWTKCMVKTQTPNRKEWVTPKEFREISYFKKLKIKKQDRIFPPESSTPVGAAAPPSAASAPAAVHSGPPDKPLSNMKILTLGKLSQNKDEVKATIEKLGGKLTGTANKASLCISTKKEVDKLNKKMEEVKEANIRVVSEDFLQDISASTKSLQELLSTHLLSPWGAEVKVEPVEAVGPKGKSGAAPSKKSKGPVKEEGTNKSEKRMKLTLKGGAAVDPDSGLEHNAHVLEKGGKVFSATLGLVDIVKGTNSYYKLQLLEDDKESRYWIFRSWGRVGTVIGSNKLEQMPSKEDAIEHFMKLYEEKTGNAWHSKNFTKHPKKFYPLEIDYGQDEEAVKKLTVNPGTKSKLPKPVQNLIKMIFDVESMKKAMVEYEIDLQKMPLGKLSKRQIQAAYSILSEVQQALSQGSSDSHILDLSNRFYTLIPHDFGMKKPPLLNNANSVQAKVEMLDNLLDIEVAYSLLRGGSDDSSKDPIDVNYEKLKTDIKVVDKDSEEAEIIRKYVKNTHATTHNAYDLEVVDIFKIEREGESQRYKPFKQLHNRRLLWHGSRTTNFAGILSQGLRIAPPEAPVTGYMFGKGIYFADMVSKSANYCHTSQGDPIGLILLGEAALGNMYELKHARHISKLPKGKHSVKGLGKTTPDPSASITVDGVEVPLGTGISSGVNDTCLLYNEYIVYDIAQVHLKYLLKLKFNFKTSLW

## O=c1ccc2ccccc2o1 [1,2-benzopyrone (coumarin), 1,2-benzopyrone]
ADPRT
  ADPRT ligand: inhibitory ligand

## O=c1ccc2c(I)c([N+](=O)[O-])ccc2o1 [5-I-6-nitro-NBP, 5-iodo-6-nitro-1,2-benzopyrone]
[1]
  biochemical activity: inactive

Reference: patent US5783599A, “Methods of treating cancer and viral infections with 5-iodo-6-amino-and 5-iodo-6-nitroso-1 2-benzopyrones” (priority 1996, dated 1998)
